Assay results from publication PMC12858582, “A coral-derived neuropeptide suppresses pentylenetetrazol (PTZ)-induced epileptic seizures and improves recognition memory deficits by modulating NPY-Y1R” (Archives of Toxicology, 2025).
Each block holds one molecule with its values, some of them ahead of it. Where no end group is shown, it is not given here.

Experiments:
C57BL/6 J mice [1] = experiment: PTZ-kindling-induced epileptic mice model; assay type: in vivo
Method: The PTZ-kindling-induced epileptic mice model was monitored as previously described (Singh et al. [2021]). PTZ (30 mg/kg, subconvulsive dose) was dissolved in saline and administered via intraperitoneal injection. TpNPY was dissolved in saline and delivered through daily intravenous injection of increasing concentrations (0.25 mg/kg, 0.5 mg/kg and 1 mg/kg) 30 min before PTZ injections for 14 consecutive days. Randomized grouping was used to divide C57BL/6 mice into 7 groups with 10 mice in each group. Then, behavioral observation was carried out at the same time, until the seizure of mice was kindled. The PTZ-only group was not exposed to TpNPY, and the control group was only given saline.

HT22 cells = experiment: HT22 cell viability (MTT assay); assay type: cell-based, mouse; conditions: for cell viability: 24 h
Method: The HT22 cell line was obtained from the ATCC (Manassas, VA, USA) and cultured in DMEM medium with an additional 10% fetal bovine serum (Gibco, US origin), 1% penicillin (100 U/mL) and streptomycin 100 (µg/mL) in a humidified 5% CO2 atmosphere at 37 °C. Cell viability was evaluated by measuring the activity of mitochondrial dehydrogenases with 3-(4,5-dimethyl-2-thiazolyl) 2,5 diphenyl-2H-tetrazolium bromide (MTT) assay (Sigma-Aldrich, USA). Briefly, HT22 cells were seeded in 96-well plates at a density of 8 × 10^3 cells per well. After various drug incubation, cells were incubated in 0.5 mg/mL MTT solution for 4 h at 37 °C. The supernatant medium was then discarded, and 100 µL of DMSO per well was added to dissolve the violet-formazan crystals. The absorbance at 570 nm wavelength was then tested by SpectraMax M5 (Wallac, The Netherlands). Under the same cell culture conditions as the cell viability assay, cytotoxicity was also evaluated via LDH release using an LDH assay kit (Beyotime, China). After different treatments, the supernatant of the cell culture medium was collected and tested according to the manufacturer’s protocol. The absorbance at 490 nm wavelength of supernatant was recorded by SpectraMax M5 (Wallac, The Netherlands).

zebrafish larvae = experiment: Zebrafish larvae survival/mortality; assay type: in vivo; conditions: 24 h exposure, 6-dpf AB wild-type larvae
Method: The 6-day post-fertilization (6-dpf) AB wild-type zebrafish were treated with various concentrations of TpNPY for 24 h in zebrafish-specific E3 culture medium. The mortality of zebrafish was calculated based on the observation of their heartbeat. To trigger seizures, zebrafish larvae were subjected to zebrafish culture medium containing 10 mM PTZ (Sigma-Aldrich, purity ≥ 99%) in 96-well plates. Their locomotor behaviors were recorded using a digital video tracking system (ViewPoint Behavior Technology, France).

C57BL/6 J mice [2] = experiment: Morris water maze (MWM) test; assay type: in vivo; conditions: MWM test stage, n = 6
Method: The Morris Water Maze (MWM) test assessed spatial learning and memory in mice (Bromley-Brits et al. [2011]). A circular pool (opaque with milk powder) was divided into four quadrants, with a hidden platform submerged in the third quadrant. Eight-week-old male C57BL/6 J mice were trained over five days (4 trials/day) to locate the platform, guided by visual cues. Escape latency (max 60 s) and platform stay time (30 s) were recorded. A probe trial (platform removed) was conducted 24 h post-training, recording time to the platform site, crossings, speed, and distance via a video camera connected to the ANY-maze Video Tracking System.

[3] = molecular target: T1, NPY-Y1 receptor (NPY-Y1R) (Homo sapiens, UniProt P25929); experiment: SPR
T1 chain: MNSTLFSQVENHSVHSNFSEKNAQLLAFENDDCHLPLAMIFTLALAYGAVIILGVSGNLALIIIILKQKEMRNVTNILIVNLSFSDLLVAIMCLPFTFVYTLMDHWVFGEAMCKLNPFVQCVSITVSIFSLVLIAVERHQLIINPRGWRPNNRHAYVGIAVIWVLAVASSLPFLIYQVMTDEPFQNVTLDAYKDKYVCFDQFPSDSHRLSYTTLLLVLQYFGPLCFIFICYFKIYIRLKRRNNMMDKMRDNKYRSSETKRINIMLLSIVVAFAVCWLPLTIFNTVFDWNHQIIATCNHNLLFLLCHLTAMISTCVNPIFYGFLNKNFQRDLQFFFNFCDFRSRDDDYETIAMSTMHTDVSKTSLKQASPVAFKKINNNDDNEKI

Molecule: C1CCc2nnnn2CC1 [PTZ, Pentylenetetrazole, reference compound]
seizure score (C57BL/6 J mice [1]; PTZ-treated group, PTZ 30 mg/kg i.p., no TpNPY, after 15 injections, mean ± SEM, SEM): 4.91 ± 0.41

Molecule: N[C@@H](CCC(=O)O)C(=O)O [glutamate]
cell viability (HT22 cells; 10 mM glutamate): 78.22% | cell viability (HT22 cells; 15 mM glutamate): 64.78% | cell viability (HT22 cells; 20 mM glutamate): 40.82%

Molecule: VGGPPKRPESFKSMAELNAYLSDLAGYYTVIGRPRF-NH2 [TpNPY]
mortality rate of zebrafish larvae (zebrafish larvae; 40 μM): approximately 50% | survival rate of zebrafish larvae (zebrafish larvae; 6-25 μM): did not lead to any substantial changes in the survival rate | behavior of mice, TpNPY alone (C57BL/6 J mice [1]; TpNPY without PTZ): no obvious influence on the behavior of mice | swimming speed (C57BL/6 J mice [2]): without affecting swimming speed | cell viability (cytotoxicity of TpNPY) (HT22 cells; 1.56 to 50 μM, 24 h incubation): did not elicit any significant changes in cell viability

Kd [3]: 1.98 µM
Molecule: VGGPPKRPESFKSMAELNAYLSDLAGYYTVIGRPRF-NH2 [TpNPY]
